According to ChEMBL document CHEMBL4196062, “Trypanothione reductase inhibition and anti-leishmanial activity of all-hydrocarbon stapled α-helical peptides with improved proteolytic stability” (Eur J Med Chem, 2018):
pEC50, pIC50: −log10 of the molar value. The source made the active and inactive calls. No cut-off for these calls is given here. Positions of bridges follow the written chain, without caps; N, C: chain ends. Non-standard residues stand in square brackets, D forms with d. Residues, ends and D or L forms follow the SMILES beside them. *: point of attachment. X1 = O=C(O)c1ccc(NC(=S)*)cc1-c1c2ccc(=O)cc-2oc2cc(O)ccc12; R5 = C=CCCC[C@@](C)(N)C(=O)O; S5 = C=CCCC[C@](C)(N)C(=O)O; Nle = CCCC[C@H](N)C(=O)O; AEEA = NCCOCCOCC(=O)O

Columns and labels:
Trypanothione reductase [1] = molecular target: T1, Trypanothione reductase (Leishmania infantum, UniProt A4HSF7); experiment: Inhibition of recombinant Leishmania infantum trypanothione reductase using T[S]2 as substrate preincubated for 5 mins followed by substrate and NADPH addition measured for 1 hr
Trypanothione reductase [2] = molecular target: T1, Trypanothione reductase; experiment: Inhibition of dimerization of HIS/FLAG tagged Leishmania infantum trypanothione reductase incubated for 16 hrs by ELISA
Proteinase K [3] = molecular target: T2, Proteinase K (Engyodontium album, UniProt P06873); experiment: Drug metabolism assessed as Tritirachium album proteinase K-mediated compound degradation by measuring half life at 100 uM measured up to 360 mins by HPLC method; format: ADME; conditions: parengyodontium album
[4] = molecular target: Trypanothione reductase (Leishmania infantum) (UniProt A4HSF7); experiment: Inhibition of dimerization of HIS/FLAG tagged Leishmania infantum trypanothione reductase assessed as dimer levels at 37.5 uM incubated for 16 hrs by ELISA; design: scale not given: the % may be the effect or the level left
Proteinase K [5] = molecular target: T2, Proteinase K; experiment: Drug metabolism assessed as Tritirachium album proteinase K-mediated compound degradation by measuring half life at 100 uM measured up to 480 mins by HPLC method; format: ADME; conditions: parengyodontium album
[6] = molecular target: Trypanothione reductase (Leishmania infantum) (UniProt A4HSF7); experiment: Inhibition of dimerization of HIS/FLAG tagged Leishmania infantum trypanothione reductase assessed as dimer levels at 18.75 uM incubated for 16 hrs by ELISA; design: scale not given: the % may be the effect or the level left
[7] = molecular target: T3, Glutathione reductase, mitochondrial (Homo sapiens) (UniProt P00390); experiment: Activation of recombinant human glutathione reductase using GSSG as substrate preincubated for 5 mins followed by substrate and NADPH addition
T3 sequence (whole entry): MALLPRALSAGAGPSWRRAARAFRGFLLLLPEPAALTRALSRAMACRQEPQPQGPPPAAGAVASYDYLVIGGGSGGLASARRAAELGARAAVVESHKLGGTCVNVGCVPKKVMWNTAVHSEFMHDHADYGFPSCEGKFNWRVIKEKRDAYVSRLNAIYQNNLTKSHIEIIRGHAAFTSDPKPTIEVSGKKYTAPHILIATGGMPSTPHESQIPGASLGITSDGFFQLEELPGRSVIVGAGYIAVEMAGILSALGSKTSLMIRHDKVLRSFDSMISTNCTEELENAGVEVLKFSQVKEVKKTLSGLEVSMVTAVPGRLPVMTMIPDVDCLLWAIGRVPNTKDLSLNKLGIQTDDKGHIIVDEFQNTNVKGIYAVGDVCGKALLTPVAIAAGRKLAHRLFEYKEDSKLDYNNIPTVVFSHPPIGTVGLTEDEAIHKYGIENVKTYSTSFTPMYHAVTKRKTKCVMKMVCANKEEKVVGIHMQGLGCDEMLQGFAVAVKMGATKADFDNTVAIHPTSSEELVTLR

[8] = molecular target: Trypanothione reductase (Leishmania infantum) (UniProt A4HSF7); experiment: Inhibition of dimerization of HIS/FLAG tagged Leishmania infantum trypanothione reductase assessed as dimer levels at 75 uM incubated for 16 hrs by ELISA; design: scale not given: the % may be the effect or the level left
[9] = molecular target: Trypanothione reductase (Leishmania infantum) (UniProt A4HSF7); experiment: Inhibition of dimerization of HIS/FLAG tagged Leishmania infantum trypanothione reductase assessed as dimer levels at 9.375 uM incubated for 16 hrs by ELISA; design: scale not given: the % may be the effect or the level left
Leishmania infantum [10] = experiment: Antileishmanial activity against Leishmania infantum MCAN/ES/89/IPZ229/1/89 promastigotes at 25 uM after 24 hrs by propidium iodide staining based fluorescence microscopic analysis; format: functional, organism-based
Leishmania infantum [11] = experiment: Antileishmanial activity against Leishmania infantum MCAN/ES/89/IPZ229/1/89 axenic amastigotes infected in human THP1 cells at 25 uM after 24 hrs by propidium iodide staining based fluorescence microscopic analysis; format: functional, organism-based
Leishmania infantum [12] = experiment: Antileishmanial activity against Leishmania infantum MCAN/ES/89/IPZ229/1/89 axenic amastigotes infected in human THP1 cells after 24 hrs by propidium iodide staining based fluorescence microscopic analysis; format: functional, organism-based; conditions: MCAN/ES/89/IPZ229/1/89, THP-1, 24 h
Leishmania infantum [13] = experiment: Antileishmanial activity against Leishmania infantum MCAN/ES/89/IPZ229/1/89 promastigotes after 24 hrs by propidium iodide staining based fluorescence microscopic analysis; format: functional, organism-based; conditions: MCAN/ES/89/IPZ229/1/89, 24 h
THP-1 = experiment: Cytotoxicity against human THP1 cells assessed as reduction in cell viability after 24 hrs by propidium iodide staining based fluorescence microscopic analysis; conditions: THP-1, 24 h

T2 sequence (P06873 whole entry): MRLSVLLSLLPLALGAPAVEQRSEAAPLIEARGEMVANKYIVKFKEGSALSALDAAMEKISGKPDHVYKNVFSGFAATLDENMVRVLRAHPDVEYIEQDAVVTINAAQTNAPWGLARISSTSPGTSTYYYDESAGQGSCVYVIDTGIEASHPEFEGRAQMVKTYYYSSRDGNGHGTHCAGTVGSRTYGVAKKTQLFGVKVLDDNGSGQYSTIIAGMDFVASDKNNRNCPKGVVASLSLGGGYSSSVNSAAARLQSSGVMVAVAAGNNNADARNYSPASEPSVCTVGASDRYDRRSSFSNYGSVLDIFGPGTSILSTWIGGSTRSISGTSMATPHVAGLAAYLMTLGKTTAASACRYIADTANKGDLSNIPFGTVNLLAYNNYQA
T1 sequence (A4HSF7 whole entry): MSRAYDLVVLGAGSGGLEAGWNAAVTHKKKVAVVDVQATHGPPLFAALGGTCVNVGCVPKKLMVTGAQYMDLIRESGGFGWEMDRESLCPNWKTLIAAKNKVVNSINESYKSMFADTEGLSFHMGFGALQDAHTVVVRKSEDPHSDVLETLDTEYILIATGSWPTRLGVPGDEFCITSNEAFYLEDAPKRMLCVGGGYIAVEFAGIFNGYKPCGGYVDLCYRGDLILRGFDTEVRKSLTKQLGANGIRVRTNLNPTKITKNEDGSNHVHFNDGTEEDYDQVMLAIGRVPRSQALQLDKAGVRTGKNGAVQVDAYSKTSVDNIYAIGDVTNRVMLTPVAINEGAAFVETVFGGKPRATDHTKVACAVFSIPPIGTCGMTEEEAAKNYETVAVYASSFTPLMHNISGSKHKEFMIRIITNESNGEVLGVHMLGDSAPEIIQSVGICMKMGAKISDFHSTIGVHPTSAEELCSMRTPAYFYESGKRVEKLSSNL
Chain of Trypanothione reductase (Leishmania infantum) (A4HSF7 as listed by the source): as the sequence (A4HSF7 whole entry) above

| Structure (SMILES) | pIC50 (Trypanothione reductase [1]) | Activity [4] | Activity [6] | Activity [8] | Activity [9] | Activity (Leishmania infantum [10]) | Activity (Leishmania infantum [11]) | further results |
| --- | --- | --- | --- | --- | --- | --- | --- | --- |
| CCCC[C@H](NC(=O)[C@H](CC(C)C)NC(=O)[C@H](CCCC)NC(=O)[C@H](CO)NC(=O)[C@@H](NC(=O)CNC(=O)[C@@H](NC(=O)[C@H](CO)NC(=O)[C@H](CCC(N)=O)NC(=O)[C@@H](NC(=O)[C@@H](NC(=O)[C@H](CC(C)C)NC(=O)[C@@H]1CCCN1C(C)=O)[C@@H](C)CC)[C@@H](C)CC)C(C)C)[C@@H](C)CC)C(N)=O | 5.92 |  |  |  |  |  |  | pIC50 (Trypanothione reductase [2]; read-out: IC50): 4.87; half-life at 100 µM (Proteinase K [3]): 0.375 to 0.383 h |
| CCCC[C@@H](NC(=O)[C@H](CC(C)C)NC(=O)[C@@H](CCCC)NC(=O)[C@H](CO)NC(=O)[C@@H](NC(=O)CNC(=O)C1(C)CCCC=CCCC[C@@](C)(NC(=O)[C@@H](NC(=O)[C@H](CC(C)C)NC(=O)[C@@H]2CCCN2C(C)=O)[C@@H](C)CC)C(=O)N[C@@H](CCC(N)=O)C(=O)N[C@@H](CO)C(=O)N[C@@H](C(C)C)C(=O)N1)[C@@H](C)CC)C(N)=O (some centres undefined) | 5.19 | 169% | 144% | 168% | 140% | inactive | inactive | half-life at 100 µM (Proteinase K [5]): 3.53 h; Activity [7]: Active |
| CCCC[C@@H](NC(=O)[C@H](CC(C)C)NC(=O)[C@@H](CCCC)NC(=O)[C@H](CO)NC(=O)[C@@H](NC(=O)CNC(=O)[C@@H](NC(=O)[C@H](CO)NC(=O)[C@H](CCC(N)=O)NC(=O)[C@@H](NC(=O)[C@@H](NC(=O)[C@H](CC(C)C)NC(=O)[C@@H]1CCCN1C(C)=O)[C@@H](C)CC)[C@@H](C)CC)C(C)C)[C@@H](C)CC)C(N)=O |  | 18% | 56% | 2% | 59% |  |  |  |
| C=CCCC[C@@](C)(NC(=O)[C@@H](NC(=O)[C@H](CO)NC(=O)[C@H](CCC(N)=O)NC(=O)[C@@](C)(CCCC=C)NC(=O)[C@@H](NC(=O)[C@H](CCCCN)NC(=O)[C@@H]1CCCN1C(C)=O)[C@@H](C)CC)C(C)C)C(=O)N[C@H](C(=O)N[C@@H](CO)C(=O)NCC(=O)N[C@@H](CCCCN)C(=O)NCC(N)=O)[C@@H](C)CC (Ac-PKI[R5]QSV[R5]ISGKG-NH2) | 4.90 | 175% | 145% | 184% | 125% | inactive | inactive |  |
| C=CCCC[C@](C)(NC(=O)[C@H](CO)NC(=O)[C@H](CCC(N)=O)NC(=O)[C@@H](NC(=O)[C@](C)(CCCC=C)NC(=O)[C@H](CCCCN)NC(=O)[C@@H]1CCCN1C(C)=O)[C@@H](C)CC)C(=O)NCC(=O)N[C@H](C(=O)N[C@@H](CO)C(=O)N[C@@H](CCCC)C(=O)N[C@@H](CCCCN)C(=O)N[C@@H](CCCC)C(N)=O)[C@@H](C)CC (Ac-PK[S5]IQS[S5]GIS[Nle]K[Nle]-NH2) | 4.55 |  |  |  |  | inactive | inactive | IC50 (Trypanothione reductase [2]): Not Active |
| CC[C@H](C)[C@H](NC(=O)[C@]1(C)CCCC=CCCC[C@](C)(NC(=O)[C@H](CCCCN)NC(=O)[C@@H]2CCCN2C(=O)[C@H](CCCNC(=N)N)NC(=O)[C@H](CCCNC(=N)N)NC(=O)[C@H](CCCNC(=N)N)NC(=O)[C@H](CCCNC(=N)N)NC(=O)[C@H](CCCNC(=N)N)NC(=O)[C@H](CCCNC(=N)N)NC(=O)[C@H](CCCNC(=N)N)NC(=O)[C@H](CCCNC(=N)N)NC(=O)[C@H](CCCNC(=N)N)NC(C)=O)C(=O)N[C@@H]([C@@H](C)CC)C(=O)N[C@@H](CCC(N)=O)C(=O)N[C@@H](CO)C(=O)NCC(=O)N1)C(=O)N[C@@H](CO)C(=O)NCC(=O)N[C@@H](CC(C)C)C(=O)NCC(N)=O (Ac-RRRRRRRRRPK[S5]IQSG[S5]ISGLG-NH2; staple 12-17) |  |  |  |  |  |  |  | pEC50 (Leishmania infantum [12]): 5.67; pEC50 (Leishmania infantum [13]): 5.71; pEC50 (THP-1): 6.48 |
| CCCC[C@H](NC(=O)[C@H](CC(C)C)NC(=O)[C@H](CCCC)NC(=O)[C@H](CO)NC(=O)[C@@H](NC(=O)CNC(=O)[C@]1(C)CCCC=CCCC[C@@](C)(NC(=O)[C@H](CC(C)C)NC(=O)[C@@H]2CCCN2C(C)=O)C(=O)N[C@@H]([C@@H](C)CC)C(=O)N[C@@H](CCC(N)=O)C(=O)N[C@@H](CO)C(=O)N1)[C@@H](C)CC)C(N)=O (stereo in doubt; 2a) [listing 1 of 2 here] | 5.17 |  |  |  |  |  |  | half-life at 100 µM (Proteinase K [5]): 6.97 h |
| CCCC[C@H](NC(=O)[C@H](CC(C)C)NC(=O)[C@H](CCCC)NC(=O)[C@H](CO)NC(=O)[C@@H](NC(=O)CNC(=O)[C@]1(C)CCCC=CCCC[C@@](C)(NC(=O)[C@H](CC(C)C)NC(=O)[C@@H]2CCCN2C(C)=O)C(=O)N[C@@H]([C@@H](C)CC)C(=O)N[C@@H](CCC(N)=O)C(=O)N[C@@H](CO)C(=O)N1)[C@@H](C)CC)C(N)=O (stereo in doubt; 2a) [listing 2 of 2 here] |  | 153% | 130% | 181% | 114% | inactive | inactive | Activity [7]: Active |
| CCCC[C@H](NC(=O)[C@H](CC(C)C)NC(=O)[C@H](CCCC)NC(=O)[C@H](CO)NC(=O)[C@@H](NC(=O)CNC(=O)[C@]1(C)CCCC=CCCC[C@@](C)(NC(=O)[C@H](CC(C)C)NC(=O)[C@@H]2CCCN2C(C)=O)C(=O)N[C@@H]([C@@H](C)CC)C(=O)N[C@@H](CCC(N)=O)C(=O)N[C@@H](CO)C(=O)N1)[C@@H](C)CC)C(N)=O (stereo in doubt; 2b) | < 4.60 |  |  |  |  |  |  | IC50 (Trypanothione reductase [2]): Not Active |
| CC[C@H](C)[C@H](NC(=O)[C@]1(C)CCCC=CCCC[C@](C)(NC(=O)[C@H](CCCCN)NC(=O)[C@@H]2CCCN2C(=O)COCCOCCNC(=S)Nc2ccc(C(=O)O)c(-c3c4ccc(=O)cc-4oc4cc(O)ccc34)c2)C(=O)N[C@@H]([C@@H](C)CC)C(=O)N[C@@H](CCC(N)=O)C(=O)N[C@@H](CO)C(=O)NCC(=O)N1)C(=O)N[C@@H](CO)C(=O)NCC(=O)N[C@@H](CC(C)C)C(=O)NCC(N)=O ({X1-AEEA}-PK[S5]IQSG[S5]ISGLG-NH2; staple 3-8) |  |  |  |  |  | inactive | inactive |  |
| CCCCCCCCCCCCCCCCCCOCC(COP(=O)([O-])OCC[N+](C)(C)C)OC (centres undefined) [EDELFOSINE] |  |  |  |  |  |  |  | pEC50 (Leishmania infantum [12]): 6.22; pEC50 (Leishmania infantum [13]): 5.05; pEC50 (THP-1): 6.00 |
| CCCCCCCCCCCCCCCCOP(=O)([O-])OCC[N+](C)(C)C [MILTEFOSINE] |  |  |  |  |  |  |  | pEC50 (Leishmania infantum [12]): 5.70; pEC50 (Leishmania infantum [13]): 4.32; pEC50 (THP-1): 4.72 |
